Reference: article PMC6663879, “Biochemical and structural investigations clarify the substrate selectivity of the 2-oxoglutarate oxygenase JMJD6” (The Journal of Biological Chemistry, 2019)
“And” between values parts separate entries of the source, which are not always exact repeats. Equal entries are not always repeated. Ends that are not written are not given here.

Legend:
JMJD6^Δ363–403 [1] = biological target: T1, JMJD6^Δ363–403 (Homo sapiens, UniProt Q6NYC1); assay: Standard MS-based hydroxylation assay (MALDI-TOF MS) of substrate peptides; assay type: biochemical; set-up: two more variants (aa 1–362, JMJD6^Δ363–403, and aa 1–343, JMJD6^Δ344–403); His6 (N); made in house; host or cells: Escherichia coli Rosetta2(DE3); conditions: for Hydroxylation: 10 μM JMJD6^Δ363–403, 100 μM peptide, 100 μM Fe(II), 400 μM ascorbate, 500 μM 2OG, 50 mM HEPES-KOH pH 8.0, 37 °C, 30 min, MALDI-TOF MS; for Hydroxylation / kcat / Km: mean ± S.D. (n = 3); for kcat/Km^app / kcat / Km: standard hydroxylation assay conditions, substrate peptide varied 0–400 μM; for Km: read-out: Km^app; for JMJD6-catalyzed hydroxylation (+16-Da mass shift), result in words: JMJD6^Δ363–403, standard assay conditions, MALDI-TOF MS / LC-MS/MS
[2] = tested on: SAKcaC (stretch-activated BK channel); assay: Single-channel current recording of SAKcaC with GsMTx4 back-filled in the pipette; assay type: cell-based, chick; conditions: for Po of SAKcaC (amplitude histogram): 50 nM GsMTx4 in pipette, 25 min after onset of back-filling, chick ventricular myocytes, typical patch
JMJD6^Δ363–403 [3] = biological target: T1, JMJD6^Δ363–403; assay: Standard MS-based demethylation assay (MALDI-TOF, LC-MS/MS); assay type: biochemical; set-up: two more variants (aa 1–362, JMJD6^Δ363–403, and aa 1–343, JMJD6^Δ344–403); His6 (N); made in house; host or cells: Escherichia coli Rosetta2(DE3); conditions: JMJD6^Δ363–403, 37 °C, HEPES-KOH pH 8.0, MALDI-TOF MS / LC-MS/MS
Procedure: Peptides were “trapped” on an in-house packed guard column (75-μm inner diameter × 20 mm, Acclaim PepMap® C18, 3 μm, 100 Å) using solvent A (0.1% (v/v) aqueous formic acid) at a pressure of 140 bar. Peptides were separated on an EASY-Spray Acclaim PepMap® analytical column (75 μm inner diameter × 15 mm, rapid separation liquid chromatography C18, 3 μm, 100 Å) using a linear gradient (length, 100 min; 3–60% solvent B (0.1% formic acid in acetonitrile), flow rate, 300 nl/min). The separated peptides were electro-sprayed directly into the spectrometer operating in a data-dependent mode using a collision-induced dissociation/electron transfer dissociation (CID/ETD)-based method. Full scan MS spectra (scan range 150–2000 m/z, resolution 30,000, AGC target 1 × 10^6, maximum injection time 250 ms) and subsequent CID MS/MS spectra (AGC target 3 × 10^4, maximum injection time 500 ms) of the 10 most intense peaks were acquired in the Orbitrap. CID fragmentation was performed at 35% of the normalized collision energy, and the signal intensity threshold was kept at 500 counts. ETD spectra (AGC cation target 5 × 10^4, AGC anion target 2 × 10^5, and cation maximum injection time 100 ms) were acquired in the ion trap. PEAKS® 8.0 (Bioinformatics Solutions, Inc., Waterloo, Canada) was used to analyze raw data. The raw MS files were searched against the respective protein sequences. […]

JMJD2E (KDM4E) = assay: MS-based demethylation assay, positive control for RDM activity; assay type: biochemical; conditions: same conditions, MALDI-TOF MS / LC-MS/MS
Procedure: Reaction samples were thereafter analyzed by MALDI-TOF or LC-MS/MS.
Peptides were “trapped” on an in-house packed guard column (75-μm inner diameter × 20 mm, Acclaim PepMap® C18, 3 μm, 100 Å) using solvent A (0.1% (v/v) aqueous formic acid) at a pressure of 140 bar. Peptides were separated on an EASY-Spray Acclaim PepMap® analytical column (75 μm inner diameter × 15 mm, rapid separation liquid chromatography C18, 3 μm, 100 Å) using a linear gradient (length, 100 min; 3–60% solvent B (0.1% formic acid in acetonitrile), flow rate, 300 nl/min). The separated peptides were electro-sprayed directly into the spectrometer operating in a data-dependent mode using a collision-induced dissociation/electron transfer dissociation (CID/ETD)-based method. Full scan MS spectra (scan range 150–2000 m/z, resolution 30,000, AGC target 1 × 10^6, maximum injection time 250 ms) and subsequent CID MS/MS spectra (AGC target 3 × 10^4, maximum injection time 500 ms) of the 10 most intense peaks were acquired in the Orbitrap. CID fragmentation was performed at 35% of the normalized collision energy, and the signal intensity threshold was kept at 500 counts. ETD spectra (AGC cation target 5 × 10^4, AGC anion target 2 × 10^5, and cation maximum injection time 100 ms) were acquired in the ion trap. PEAKS® 8.0 (Bioinformatics Solutions, Inc., Waterloo, Canada) was used to analyze raw data. […]

[4] = JMJD6^Δ363–403, MALDI-TOF MS, inhibitor concentration not given

## O=C(O)c1ccnc(C(=O)O)c1 [2,4-PDCA, 2,4-pyridine dicarboxylic acid, reference compound]
JMJD6^Δ363–403 [1]; [4]
  Hydroxylation of ERα 251–262 peptide by JMJD6 on addition of the inhibitor: Hydroxylation was ablated
  Hydroxylation of WT pVHL166–177 by JMJD6 in the presence of the inhibitor: did not manifest hydroxylation

## DRKSYKHRSKSRDR [CROP357–370, fragment of SR protein CROP/LUC7L3]
JMJD6^Δ363–403 [1]
  Hydroxylation: 88.7 ± 4.9%
  kcat/Km^app: 42 M⁻¹ s⁻¹
  kcat: 39.0 ± 3.6 × 10^−4 s^−1
  Km: 93 ± 20 µM

## ENRHRKRSHSRSRSR [U2AF65_21–35, fragment of the RS region of U2AF65]
JMJD6^Δ363–403 [1]
  Hydroxylation: 74.7 ± 4.1%
  kcat/Km^app: 68 M⁻¹ s⁻¹
  kcat: 40.0 ± 2.2 × 10^−4 s^−1
  Km: 59 ± 8.6 µM

## ERGRRSRSTSKT [SRSF11_299–310, fragment of SRSF11]
JMJD6^Δ363–403 [1]
  Hydroxylation: 6.40 ± 0.90%

## ERα251–262K252A: ERα 251–262 peptide with alanine substitution K252A (MAGGIRKDRRGG; UniProt P03372 251-262, looked up, fragment K252A)
JMJD6^Δ363–403 [1]
  JMJD6-catalyzed hydroxylation (+16-Da mass shift), result in words: Hydroxylation was ablated

## ERα251–262K257A: ERα 251–262 peptide with alanine substitution K257A (MKGGIRADRRGG; UniProt P03372 251-262, looked up, fragment K257A)
JMJD6^Δ363–403 [1]
  JMJD6-catalyzed hydroxylation (+16-Da mass shift), result in words: Hydroxylation was ablated

## GsMTx4: inhibitor of stretch-activated BK channel (mismatched supplement) (GCLEFWWKCNPNDDKCCRPKLKCSKLFKLCNFSF; ends and bridges not checked; cysteine pairing not given here; UniProt Q7YT39 47-80, looked up)
[2]; 1 mM intracellular Ca2+
  Po of SAKcaC (amplitude histogram): 35.5
[2]; –40 mV, 0.8 µM intracellular Ca2+
  Po of SAKcaC (amplitude histogram): 14.2
[2]; 100 nM GsMTx4 in the pipette, 1 mM intracellular Ca2+, 30 min after onset of back-filling
  Effect on stretch-activated BK channel and its single-channel conductance, result in words: inhibits stretch-activated BK channel without changing single-channel conductance

## H3_1–25: histone 3 peptide with unmodified arginine residues
JMJD6^Δ363–403 [1]
  JMJD6-catalyzed hydroxylation (+16-Da mass shift), result in words: hydroxylation of lysine residues was also observed

## H4_1–30: histone 4 peptide with unmodified arginine residues
JMJD6^Δ363–403 [1]
  JMJD6-catalyzed hydroxylation (+16-Da mass shift), result in words: hydroxylation of lysine residues was also observed

## KRHSRSRSRS [Acinus S′95–604, fragment of Acinus S′]
JMJD6^Δ363–403 [1]
  Hydroxylation: 12.5 ± 3.0%

## KSKERKRSRDRE [RBM39_51–62, fragment of RBM39]
JMJD6^Δ363–403 [1]
  Hydroxylation: 37.0 ± 7.6%

## NPKRSRSREHRR [LUC7L2_267–278, reported JMJD6 substrate, fragment of SR protein LUC7L2, reference compound]
JMJD6^Δ363–403 [1]
  Hydroxylation: 98.5 ± 4.8%
  kcat/Km^app: 208 M⁻¹ s⁻¹
  kcat: 106 × 10^−4 s^−1 and 106 ± 4.0 × 10^−4 s^−1
  Km: 51 ± 4.6 µM

## PRSRSRSRDRRRKE [Acinus S′447–460, fragment of Acinus S′]
JMJD6^Δ363–403 [1]
  Hydroxylation: 25.6 ± 2.8%

## RDRRRRSKPLTRGAK [U2AF65_55–70, fragment of U2AF65]
JMJD6^Δ363–403 [1]
  Hydroxylation: 61.0 ± 6.4%
  kcat/Km^app: 34 M⁻¹ s⁻¹
  kcat: 43.0 ± 5.2 × 10^−4 s^−1
  Km: 124 ± 34 µM

## RKHRSRSRDRRRSKS [CROP341–355, fragment of SR protein CROP/LUC7L3]
JMJD6^Δ363–403 [1]
  Hydroxylation: 92.7 ± 6.9%
  kcat/Km^app: 217 M⁻¹ s⁻¹
  kcat: 165 ± 12 × 10^−4 s^−1
  Km: 76 ± 13 µM

## RKRSRSKERRRS [RBM39_71–82, fragment of RBM39]
JMJD6^Δ363–403 [1]
  Hydroxylation: 87.6 ± 7.0%
  kcat/Km^app: 322 M⁻¹ s⁻¹
  kcat: 284 ± 11 × 10^−4 s^−1
  Km: 88 ± 8.7 µM

## RSKKRKKSKSRS [RBM39_31–42]
JMJD6^Δ363–403 [1]
  Hydroxylation: 99.0 ± 0.70%
  kcat/Km^app: 455 M⁻¹ s⁻¹
  kcat: 255 ± 15 × 10^−4 s^−1
  Km: 56 ± 9.6 µM

## RSKSPRRRRSHSR [SRSF11_286–298, fragment of SRSF11]
JMJD6^Δ363–403 [1]
  Hydroxylation: 90.5 ± 5.0%
  kcat/Km^app: 195 M⁻¹ s⁻¹
  kcat: 80.0 ± 3.9 × 10^−4 s^−1
  Km: 41 ± 6.6 µM

## RSPKRKLSRSPSPR [SRSF11_358–372, fragment of SRSF11]
JMJD6^Δ363–403 [1]
  Hydroxylation: 44.1 ± 3.9%
  kcat/Km^app: 229 M⁻¹ s⁻¹
  kcat: 174 ± 19 × 10^−4 s^−1
  Km: 76 ± 21 µM

## RSRSGTRSPKKPSR [SRSF11_347–360, fragment of SRSF11]
JMJD6^Δ363–403 [1]
  Hydroxylation: 97.0 ± 2.2%
  kcat/Km^app: 159 M⁻¹ s⁻¹
  kcat: 146 ± 9.6 × 10^−4 s^−1
  Km: 92 ± 14 µM

## SGR(me2s)GKGGKGLGKGGAKRHK-biotin [H4R3(me2s)1–18, histone 4 peptide with symmetrically di-methylated Arg3 and K-biotin]
JMJD6^Δ363–403 [1]
  JMJD6-catalyzed hydroxylation (+16-Da mass shift), result in words: catalyzes hydroxylation
JMJD6^Δ363–403 [3]
  JMJD6-catalyzed demethylation (−14 or −28 Da mass shift), result in words: does not have RDM activity
JMJD2E (KDM4E)
  JMJD2E-catalyzed demethylation (−14 and −28 Da mass shifts), result in words: manifested demethylation

## SKSRSRSHERKRS [RBM39_38–50, fragment of RBM39]
JMJD6^Δ363–403 [1]
  Hydroxylation: 79.0 ± 8.9%
  kcat/Km^app: 395 M⁻¹ s⁻¹
  kcat: 281 ± 15 × 10^−4 s^−1
  Km: 71 ± 9.9 µM

## SRDHKRSRSRERRRS [CROP311–325, fragment of SR protein CROP/LUC7L3]
JMJD6^Δ363–403 [1]
  Hydroxylation: 89.3 ± 1.9%
  kcat/Km^app: 269 M⁻¹ s⁻¹
  kcat: 191 ± 6.6 × 10^−4 s^−1
  Km: 71 ± 7.2 µM

## SRERRKLSRSRSR [LUC7L1_287–298, fragment of LUC7L1]
JMJD6^Δ363–403 [1]
  Hydroxylation: 18.3 ± 3.1%

## SRRRSRSKSPFR [RBM39_121–132, fragment of RBM39]
JMJD6^Δ363–403 [1]
  Hydroxylation: 82.5 ± 5.6%
  kcat/Km^app: 303 M⁻¹ s⁻¹
  kcat: 300 ± 23 × 10^−4 s^−1
  Km: 99 ± 19 µM

## SRSRRRSHSKSR [SRSF11_271–282, fragment of SRSF11]
JMJD6^Δ363–403 [1]
  Hydroxylation: 33.6 ± 1.8%

## SRSRSRDRKRRSRSRDR [U2AF65_30–46, fragment of the RS region of U2AF65]
JMJD6^Δ363–403 [1]
  Hydroxylation: 72.4 ± 6.5%
  kcat/Km^app: 118 M⁻¹ s⁻¹
  kcat: 92.0 ± 7.0 × 10^−4 s^−1
  Km: 78 ± 15 µM

## pVHL166–177: lysine-containing pVHL sequence (VRSLVKPENYRR; UniProt P40337 166-177, looked up, fragment)
JMJD6^Δ363–403 [1]
  JMJD6-catalyzed hydroxylation (+16-Da mass shift), result in words: presence of a +16-Da mass shift

## pVHL166–177K171A: alanine variant of pVHL166–177 (VRSLVAPENYRR; UniProt P40337 166-177, looked up, fragment K171A)
JMJD6^Δ363–403 [1]
  JMJD6-catalyzed hydroxylation (+16-Da mass shift), result in words: did not manifest hydroxylation
